Key:
[1] = cited from earlier work
[2] = Expected patient plasma DXA at the exemplary elution rates; assay type: in vivo; settings: below LOQ
Protocol: With a manufacturing process that consists of at least two months (60 days) from the start of elution until implant, and using data from in vitro release testing, a daily release of between approximately 2 and 5 μg DXA in one exemplary embodiment is expected over the life of the implant (average of approximately 3 μg/day). These exemplary elution rates are within range of the elution rates seen in the above-referenced predicate devices. At these elution rates, it can be reasonably expected that patient plasma DXA levels to be below the 50 pg/mL LOQ. The full modeled release profile is shown in FIG. 2, which illustrates total release 212 of DXA from the implantable sensor device accumulating prior to implantation with, daily release 214 of DXA from the implantable sensor starting at a rate of approximately 4.8 μg per day upon implantation and gradually reducing to below 2.0 μg/day over the period of implantation. In other embodiments, DSP, other dexamethasone compounds, and/or other eluting anti-inflammatory drugs may be used similarly.

[3] = human, in vivo
[4] = cited from earlier work; remark: listed apart in the source

Row | SMILES | water solubility [1] | expected patient plasma DXA levels [2] | daily dose required to have a DXA level greater than the LOQ in plasma [3] | plasma DXA ([4]; one device implanted, no measurable DXA, LOQ = 50 pg/mL) | maximum reported plasma DXA ([4]; two devices implanted) | time DXA measurable in plasma after implant ([4]; two devices implanted, some patients)
1 | C[C@@H]1C[C@H]2[C@@H]3CCC4=CC(=O)C=C[C@]4(C)[C@@]3(F)[C@@H](O)C[C@]2(C)[C@@]1(O)C(=O)COP(=O)(O)O [DSP, dexamethasone sodium phosphate] | highly water soluble | – | – | – | – | –
2 | CC(=O)OCC(=O)[C@@]1(O)[C@H](C)C[C@H]2[C@@H]3CCC4=CC(=O)C=C[C@]4(C)[C@@]3(F)[C@@H](O)C[C@@]21C [DXA, dexamethasone acetate] | – | < 50 pg/mL | ≥ 15 µg | < 50 pg/mL | 114 pg/mL | up to 8 days

From patent US20220338769A1, “METHODS AND APPARATUS FOR SUBSTANCE DELIVERY IN AN IMPLANTABLE DEVICE” (GlySens Incorporated, priority 2021, published 2022)
